In patent US7238469B2, “Carbon monoxide improves outcomes in tissue and organ transplants and suppresses apoptosis” (priority 2001, dated 2007):

Experiments:
βTC3 cells = assay: DNA fragmentation analysis (FACScan) of βTC3 treated with TNF-α; type: cell-based, murine; conditions: exogenous CO 1% for 24 hours
Protocol: (§1) βTC3 cultures were incubated with recombinant TNF-α (500 or 1000 U/ml) (R&D Systems) for 24 hours and islet cultures were stimulated with TNF-É (5000 U/ml) (R&D Systems) and cyclohexamide (CHX) (50 μg/ml) for 48 hours. βTC3 or islets were harvested, dispersed, fixed in 70% ethanol, and suspended in DNA staining buffer (PBS, pH 7.4, containing 0.1% Triton X-100, 0.1 mM EDTA, 50 μg/ml propidium iodide, […] Rnase A). DNA content was analyzed on a FACScan™ analyzer equipped with Cell QuestO Software (Becton Dickinson, Palo Alto, Calif.). Cells with a normal DNA content (2N) were scored as viable, whereas cells with a hypoploid DNA content (<2N, termed A^0) were scored as apoptotic. To exclude debris and apoptotic cell-free fragments, all events with an FL-2 area profile below that of chicken erythrocyte nuclei were excluded from analysis.
Cells and islets were exposed to 1% carbon monoxide in compressed air balanced with 5% CO2, as described elsewhere (see, e.g., Otterbein et al., Nature Med. 6:422–428, 2000). […]
Whether exogenous carbon monoxide could protect β-cells from apoptosis was investigated (FIGS. 2A–C). […] After 24 hours cells were stained by propidium iodide and analyzed for DNA fragmentation on a FACScan™. […]

[1] = test system: murine islets of Langerhans; assay: DNA fragmentation analysis (FACScan) of murine islets stimulated with TNF-α and cycloheximide; type: cell-based, C57BL/6 mice; conditions: isolated murine islets; TNF-α plus cycloheximide; CO 1% for 24 hours; analysed after 48 hours
Protocol: as §1
Cells and islets were exposed to 1% carbon monoxide in compressed air balanced with 5% CO2, as described elsewhere (see, e.g., Otterbein et al., Nature Med. 6:422–428, 2000). Islets were incubated in RPMI medium pre-saturated with carbon monoxide (4° C. overnight, 1% CO, 5% CO2) for two hours at 37° C. while treatment with 1% CO, 5% CO2 was continued.
Whether exogenous carbon monoxide protects murine islet cells from apoptosis was also investigated (FIG. 3). […] After 48 hours cells were analyzed on a FACScan™ for DNA fragmentation. […]

[2] = test system: Brown Norway aortas transplanted into Lewis rats; assay: Aortic transplant model (transplant-associated arteriosclerosis); type: in vivo, rat; conditions: allogeneic recipients exposed to CO 250 ppm for 56 days
Protocol: Aortic transplantation was carried out done as described elsewhere (Plissonnier et al., Transplantation 60:414–424, 1995). […] After additional left thoracotomy, three or four pairs of the inter-costal arteries were ligated using 7-0 nylon suture (Keisei Medical Industrial Co., LTD, Tokyo, Japan), and 2 cm of the descending aorta was harvested. The graft was inserted between the renal arteries and the aortic bifurcation by standard microsurgery technique using 9-0 Nylon sutures (Ethilon™, Ethicon, Inc, Somerville, N.J.). The native abdominal aorta was left after both edges were ligated.
CO at a concentration of 1% (10,000 parts per million; ppm) in compressed air was mixed with balanced air (21% oxygen) as described previously (Otterbein et al., Am J Physiol 276(4 Pt 1):L688–L694, 1999). For the transplant model, graft donors were placed in the CO chamber two days before transplantation. Recipients were placed in the chamber immediately following transplantation and kept there 56 days. CO concentration was maintained at 250 ppm at all times.
Adult male (250–350 g) Brown Norway rats (RT1 were used as aortic graft donors and adult male (250–350 g) Lewis rats (RT1) as recipients (Charles River Lab. Wilmington, Mass.). Male C57BL/6, p21^−/− and p53^−/− null mice were purchased from Jackson Laboratory (Bar Harbor, Me.). The MKK3^(−/−) null mice were generated as previously described (Lu et al., EMBO. J. 18:1845–1857, 1999). Mice were allowed to acclimate for one week with rodent chow and water ad libitum.
Brown Norway aortas were transplanted into Brown Norway rats (syngeneic), untreated Lewis rats (allogeneic), or Lewis rats exposed to carbon monoxide (250 ppm; allogeneic with carbon monoxide). Samples were harvested 56 days after transplantation and stained by a modified elastic tissue-masson trichrome, or by eosin hematoxylin. Brown Norway aortic segments transplanted into Lewis rats developed arteriosclerotic lesions that are consistent with those associated with chronic graft rejection (data not shown). […]

[3] = water at 0° C.; cited from earlier work

[C-]#[O+] [CO, carbon monoxide]
apoptotic cells (DNA fragmentation analysis) (βTC3 cells): 11.7%
apoptotic cells (DNA fragmentation analysis) [1]: 11.7%
accumulation of leukocytes into the adventitia [2]: inhibited
intimal hyperplasia in aortic grafts [2]: inhibited
loss of medial SMC [2]: no significant effect on loss of medial SMC
saturation point [3]: about 0.0044 g CO/100 g medium
